{
  "source": "ChEMBL document CHEMBL4823324",
  "about": "“Discovery of BMS-986318, a Potent Nonbile Acid FXR Agonist for the Treatment of Nonalcoholic Steatohepatitis” (ACS Med Chem Lett, 2021)",
  "key": {"Glucocorticoid receptor": {"molecular_target": "T1, Glucocorticoid receptor (Homo sapiens, UniProt P04150)", "T1 sequence (P04150 whole entry)": "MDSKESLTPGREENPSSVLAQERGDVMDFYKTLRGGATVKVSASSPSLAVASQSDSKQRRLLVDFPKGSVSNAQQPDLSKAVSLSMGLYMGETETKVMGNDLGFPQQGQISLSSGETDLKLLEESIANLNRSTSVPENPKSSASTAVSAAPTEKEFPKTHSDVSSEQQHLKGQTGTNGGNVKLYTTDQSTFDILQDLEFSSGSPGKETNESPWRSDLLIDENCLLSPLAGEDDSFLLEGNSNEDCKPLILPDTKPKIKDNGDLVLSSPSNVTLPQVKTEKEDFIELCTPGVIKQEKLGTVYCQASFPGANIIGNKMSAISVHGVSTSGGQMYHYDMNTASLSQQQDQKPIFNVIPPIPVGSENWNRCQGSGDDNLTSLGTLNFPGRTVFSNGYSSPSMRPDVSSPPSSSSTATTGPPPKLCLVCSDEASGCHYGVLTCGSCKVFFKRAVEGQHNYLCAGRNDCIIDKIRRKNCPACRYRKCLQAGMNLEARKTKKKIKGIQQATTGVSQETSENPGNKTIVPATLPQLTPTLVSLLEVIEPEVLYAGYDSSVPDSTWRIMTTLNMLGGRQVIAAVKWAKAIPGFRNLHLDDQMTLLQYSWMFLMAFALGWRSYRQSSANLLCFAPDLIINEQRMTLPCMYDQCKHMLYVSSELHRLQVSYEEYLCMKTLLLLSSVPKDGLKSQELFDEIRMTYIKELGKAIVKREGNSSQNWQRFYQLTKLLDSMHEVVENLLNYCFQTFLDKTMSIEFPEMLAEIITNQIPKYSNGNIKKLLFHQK", "assay": "Activation of glucocorticoid receptor (unknown origin) by fluorescence polarization based competition assay"}, "[1]": {"assay": "Plasma concentration in mouse at 3 mg/kg, po measured after 6 hrs", "type": "ADME, organism-based"}, "[2]": {"molecular_target": "T2, Oxysterols receptor LXR-beta (Homo sapiens, UniProt P55055)", "T2 sequence (P55055 whole entry)": "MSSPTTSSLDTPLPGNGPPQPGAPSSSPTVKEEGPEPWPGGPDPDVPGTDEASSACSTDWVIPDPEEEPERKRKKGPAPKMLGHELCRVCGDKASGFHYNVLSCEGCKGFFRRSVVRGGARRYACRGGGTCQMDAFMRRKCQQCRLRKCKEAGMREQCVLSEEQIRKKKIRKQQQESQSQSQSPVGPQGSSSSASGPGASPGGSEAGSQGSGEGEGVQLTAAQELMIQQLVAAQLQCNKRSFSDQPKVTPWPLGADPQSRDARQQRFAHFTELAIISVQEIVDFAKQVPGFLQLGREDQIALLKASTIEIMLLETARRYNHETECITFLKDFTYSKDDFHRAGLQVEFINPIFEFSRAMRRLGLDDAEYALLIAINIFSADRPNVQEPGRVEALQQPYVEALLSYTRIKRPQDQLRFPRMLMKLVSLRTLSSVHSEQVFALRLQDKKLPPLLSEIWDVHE", "assay": "Activation of human LXRbeta co-expressed with TK-luciferase reporter in African green monkey CV-1 cells incubated for overnight by Steady-Glo luciferase reporter gene based luminescence analysis", "type": "cell-based"}, "[3]": {"assay": "Metabolic stability in mouse liver microsomes assessed as half life", "type": "ADME, Microsome"}, "[4]": {"assay": "Clearance in C57B6 mouse at 1 mg/kg, iv", "type": "ADME, organism-based", "details": "in vivo"}, "Estrogen receptor": {"molecular_target": "T3, Estrogen receptor (Homo sapiens, UniProt P03372)", "T3 sequence (P03372 whole entry)": "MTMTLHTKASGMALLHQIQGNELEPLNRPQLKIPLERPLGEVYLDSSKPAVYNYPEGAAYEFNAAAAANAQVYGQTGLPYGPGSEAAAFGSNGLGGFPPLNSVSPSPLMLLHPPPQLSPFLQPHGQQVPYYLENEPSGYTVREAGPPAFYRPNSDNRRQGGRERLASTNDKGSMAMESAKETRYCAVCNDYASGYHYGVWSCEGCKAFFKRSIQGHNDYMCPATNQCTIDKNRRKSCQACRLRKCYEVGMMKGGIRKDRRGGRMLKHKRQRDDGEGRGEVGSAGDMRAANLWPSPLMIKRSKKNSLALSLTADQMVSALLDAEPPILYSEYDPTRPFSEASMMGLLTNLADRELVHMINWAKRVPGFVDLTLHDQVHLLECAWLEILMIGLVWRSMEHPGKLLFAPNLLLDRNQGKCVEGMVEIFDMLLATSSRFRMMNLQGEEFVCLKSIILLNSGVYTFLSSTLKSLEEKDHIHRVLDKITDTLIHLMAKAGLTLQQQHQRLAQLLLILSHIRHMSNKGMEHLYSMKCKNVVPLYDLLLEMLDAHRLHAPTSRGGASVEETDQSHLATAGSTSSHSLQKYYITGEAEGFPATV", "assay": "Activation of estrogen receptor alpha (unknown origin) by fluorescence polarization based competition assay"}, "[5]": {"molecular_target": "T4, Peroxisome proliferator-activated receptor delta (Homo sapiens, UniProt Q03181)", "T4 sequence (Q03181 whole entry)": "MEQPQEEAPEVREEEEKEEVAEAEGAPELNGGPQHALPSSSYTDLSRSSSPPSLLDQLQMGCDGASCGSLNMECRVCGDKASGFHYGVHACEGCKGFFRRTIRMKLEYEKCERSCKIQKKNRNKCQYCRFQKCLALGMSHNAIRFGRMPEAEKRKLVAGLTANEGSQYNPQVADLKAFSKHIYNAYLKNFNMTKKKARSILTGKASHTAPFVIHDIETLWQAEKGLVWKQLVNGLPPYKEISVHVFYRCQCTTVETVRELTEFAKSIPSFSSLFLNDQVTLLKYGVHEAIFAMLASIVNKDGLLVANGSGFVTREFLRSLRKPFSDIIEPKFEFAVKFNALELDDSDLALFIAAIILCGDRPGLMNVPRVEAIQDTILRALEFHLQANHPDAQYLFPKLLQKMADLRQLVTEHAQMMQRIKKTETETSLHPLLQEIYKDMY", "assay": "Activation of PPARdelta LBD (unknown origin) co-expressed with Gal4UAS-luciferase reporter in HEK293 cells incubated for 24 hrs by Steady-Glo luciferase reporter gene based luminescence analysis", "type": "cell-based"}, "[6]": {"assay": "Metabolic stability in human liver microsomes assessed as half life", "type": "ADME, Microsome"}},
  "data": [
    {"compound": "O=C(O)c1cc(C(F)(F)F)c2cc(N3CCC4(C=C(c5c(-c6c(Cl)cncc6Cl)noc5C5CC5)C4)CC3)ccc2n1", "values": [
      {"measurement": "EC50", "setting": "Glucocorticoid receptor", "value": "> 40", "unit": "µM"},
      {"measurement": "concentration at 6 h", "setting": "[1]", "value": 37, "unit": "nM"},
      {"measurement": "EC50", "setting": "[2]", "value": "> 40", "unit": "µM"},
      {"measurement": "half-life", "setting": "[3]", "value": "> 120", "unit": "min"},
      {"measurement": "clearance", "setting": "[4]", "value": 3.8, "unit": "mL/min/kg"},
      {"measurement": "EC50", "setting": "Estrogen receptor", "value": "> 40", "unit": "µM"},
      {"measurement": "EC50", "setting": "[5]", "value": "> 40", "unit": "µM"},
      {"measurement": "half-life", "setting": "[6]", "value": "> 120", "unit": "min"}
    ]}
  ]
}
